Values after ≈ are worked out from the molar mass of the structure shown.

This passage reports IC50 results from ChEMBL document CHEMBL3877320, “Synthesis of new analogs of AKBA and evaluation of their anti-inflammatory activities” (Bioorg Med Chem, 2017).

This experiment is described as follows: Inhibition of potato 5-lipoxygenase using linoleic acid as substrate preincubated for 2 mins followed by substrate addition measured for 120 secs. Also noted: species or system Solanum tuberosum.
`CC(=O)O[C@@H]1CC[C@@]2(C)[C@@H](CC[C@]3(C)[C@@H]2C(=O)C=C2[C@@H]4[C@@H](C)[C@H](C)CC[C@]4(C)CC[C@]23C)[C@@]1(C)C(=O)O` [AKBA] showed an IC50 of 94.6 µg/mL (≈ 185 µM).

Regarding `C[C@H]1[C@H](C)CC[C@]2(C)CC[C@]3(C)C(=CC(=O)[C@@H]4[C@@]5(C)CC(C=O)C(=O)[C@](C)(C(N)=O)[C@@H]5CC[C@]43C)[C@H]12` (some centres undefined), the IC50 was greater than 100 µg/mL.

Compound `C[C@H]1[C@H](C)CC[C@]2(C)CC[C@]3(C)C(=CC(=O)[C@@H]4[C@@]5(C)Cc6cnoc6[C@](C)(C(=O)N6CCN(C)CC6)[C@@H]5CC[C@]43C)[C@H]12` yielded an IC50 greater than 100 µg/mL.

In turn, `C[C@H]1[C@H](C)CC[C@]2(C)CC[C@]3(C)C(=CC(=O)[C@@H]4[C@@]5(C)Cc6cn[nH]c6[C@](C)(C(=O)N6CCNCC6)[C@@H]5CC[C@]43C)[C@H]12` returned an IC50 greater than 100 µg/mL.

Consider `C[C@H]1[C@H](C)CC[C@]2(C)CC[C@]3(C)C(=CC(=O)[C@@H]4[C@@]5(C)Cc6cn[nH]c6[C@](C)(C(=O)N6CCN(C)CC6)[C@@H]5CC[C@]43C)[C@H]12`, for which the IC50 is greater than 100 µg/mL.

`C[C@H]1[C@H](C)CC[C@]2(C)CC[C@]3(C)C(=CC(=O)[C@@H]4[C@@]5(C)CC(C=O)C(=O)[C@@H](C)[C@@H]5CC[C@]43C)[C@H]12` (some centres undefined) came in with an IC50 of 44.14 µg/mL (≈ 97.5 µM).

Regarding `C[C@H]1[C@H](C)CC[C@]2(C)CC[C@]3(C)C(=CC(=O)[C@@H]4[C@@]5(C)CC(C=O)C(=O)[C@](C)(C(=O)N6CCCCC6)[C@@H]5CC[C@]43C)[C@H]12` (some centres undefined), the IC50 was greater than 100 µg/mL.

Compound `COC(=O)[C@@]1(C)c2oncc2C[C@@]2(C)[C@H]1CC[C@]1(C)[C@@H]2C(=O)C=C2[C@@H]3[C@@H](C)[C@H](C)CC[C@]3(C)CC[C@]21C` gave an IC50 greater than 100 µg/mL.

In the case of `COC(=O)[C@@]1(C)C(=O)C(C#N)=C[C@]2(C)[C@H]3C(=O)C=C4[C@@H]5[C@@H](C)[C@H](C)CC[C@]5(C)CC[C@@]4(C)[C@]3(C)CC[C@@H]12`, the IC50 is greater than 100 µg/mL.

`C[C@H]1[C@H](C)CC[C@]2(C)CC[C@]3(C)C(=CC(=O)[C@@H]4[C@@]5(C)CC(C=O)C(=O)[C@](C)(C(=O)N6CCOCC6)[C@@H]5CC[C@]43C)[C@H]12` (some centres undefined) returned an IC50 greater than 100 µg/mL.

`C[C@H]1[C@H](C)CC[C@]2(C)CC[C@]3(C)C(=CC(=O)[C@@H]4[C@@]5(C)Cc6cnoc6[C@](C)(C(=O)N6CCCCC6)[C@@H]5CC[C@]43C)[C@H]12` yielded a concentration for half-maximal inhibition (IC50) of 20.31 µg/mL (≈ 36.2 µM).

Compound `C[C@H]1[C@H](C)CC[C@]2(C)CC[C@]3(C)C(=CC(=O)[C@@H]4[C@@]5(C)Cc6cn[nH]c6[C@](C)(C(=O)O)[C@@H]5CC[C@]43C)[C@H]12` yielded an IC50 greater than 100 µg/mL.

The compound `C[C@H]1[C@H](C)CC[C@]2(C)CC[C@]3(C)C(=CC(=O)[C@@H]4[C@@]5(C)Cc6cn[nH]c6[C@](C)(C(=O)N6CCCCC6)[C@@H]5CC[C@]43C)[C@H]12` yielded an IC50 greater than 100 µg/mL.

For `C[C@H]1[C@H](C)CC[C@]2(C)CC[C@]3(C)C(=CC(=O)[C@@H]4[C@@]5(C)CC(C=O)C(=O)[C@](C)(C(=O)Nc6ccccc6)[C@@H]5CC[C@]43C)[C@H]12` (some centres undefined), the IC50 amounted to 19.53 µg/mL (≈ 34.2 µM).
